# Assays:
# [1] = test system: human CD4+ T cells; test: Surface expression of C3aR and gut homing markers on CD4+ T cells grown with ATRA; format: cell-based; settings: w/wo 10 nM ATRA
# Protocol: FIGS. 9A, 9B, 9C, 9D, 9E, 9F, 9G, 9H, 9I, 9J, 9K, 9L, 9M, 9N, 90, and 9P. Changes in inflammatory cytokine production by CD55 deficient cells promote pro-thrombotic changes in endothelial cells. Cytokine secretion in control and patient T cells following restimulation with anti-CD3 for 48 hours. Cells were either left untreated or treated with a combination of C3aR and C5aR1 inhibitors, both at 10 μM final concentration. Each patient point represents the average of at least three independent experiments. Results are for TNFα, IL10, or IFNγ (A, B, and C respectively). […] Quantification of the change in TM and TF expression on HUVECs in response to 24 hour culture with increasing doses of TNFα (H). […] Quantification of CD46, CD59, and CD55 expression on HUVECs in response to 24 hour culture with increasing doses of TNFα (J, K, and L, respectively). Quantification of the change in TM and TF expression on HUVECs in response to 48 hour culture with increasing doses of ATRA (M). Quantification of CD46, CD59, and CD55 expression on HUVECs in response to 48 hour culture with increasing doses of ATRA (N, O, and P, respectively). […]
# Flow Cytometry. […] Cells were then washed 3× and resuspended in FACS buffer with 1% PFA and analyzed by flow cytometry. Flow files were analyzed on FlowJo version 9.9 or above (FlowJo, LLC, Ashland, OR, USA).
# [2] = test system: HUVECs; test: Surface marker expression on HUVECs after TNFα or ATRA treatment (flow cytometry); format: cell-based, human
# Protocol: FIGS. 9A, 9B, 9C, 9D, 9E, 9F, 9G, 9H, 9I, 9J, 9K, 9L, 9M, 9N, 90, and 9P. Changes in inflammatory cytokine production by CD55 deficient cells promote pro-thrombotic changes in endothelial cells. Cytokine secretion in control and patient T cells following restimulation with anti-CD3 for 48 hours. Cells were either left untreated or treated with a combination of C3aR and C5aR1 inhibitors, both at 10 μM final concentration. Each patient point represents the average of at least three independent experiments. Results are for TNFα, IL10, or IFNγ (A, B, and C respectively). Anaphylatoxin receptor surface expression on proliferating CD4^+ T cells grown in complete RPMI supplemented with 100 u/mL IL2, isotype: filled grey line, sample: solid black line (D). C3aR expression on proliferating CD4^+ T cells grown in serum free X-vivo15 media supplemented with 100 u/mL IL-2 w/wo 10 nM ATRA, grey and black line respectively, isotype: filled grey line (E). IL-10 production in control and patient T cells stimulated with anti-CD3 and stimulatory antibodies directed against the indicated costimulatory molecules (F). Flow plots of thrombomodulin (TM) and Tissue Factor (TF) expression on HUVECs cultured for 24 hours w/wo 10 ng/mL TNFα (G). Quantification of the change in TM and TF expression on HUVECs in response to 24 hour culture with increasing doses of TNFα (H). Flow plots of CD46 and CD59 expression on HUVECs cultured for 24 hours w/wo 10 ng/mL TNFα (I). Quantification of CD46, CD59, and CD55 expression on HUVECs in response to 24 hour culture with increasing doses of TNFα (J, K, and L, respectively). Quantification of the change in TM and TF expression on HUVECs in response to 48 hour culture with increasing doses of ATRA (M). Quantification of CD46, CD59, and CD55 expression on HUVECs in response to 48 hour culture with increasing doses of ATRA (N, O, and P, respectively). (not significant (n.s.), * p<0.05, **p<0.01, ***p<0.001).
# Flow Cytometry. Adherent cells were treated with 0.05% trypsin EDTA to lift them from the surface followed by addition of 5% FBS to inactivate the trypsin. Suspension cells were collected from culture following mixture of the culture by repeat pipetting. Cells were washed and resuspended in FACS buffer (1% FBS, 0.05% sodium azide, and 5 mM EDTA in PBS) at 2×10^6 cells/mL. Staining or isotype antibodies were added at 1:200 final dilutions and incubated with cells at 4° C. for 30 minutes to 1 hour. Cells were then washed 3× and resuspended in FACS buffer with 1% PFA and analyzed by flow cytometry. Flow files were analyzed on FlowJo version 9.9 or above (FlowJo, LLC, Ashland, OR, USA).
# HUVEC Experiments. Huvecs grown to 80% confluency, and before passage 8, were trypsonized and replated in 24 well tissue culture plates at 200,000 cells/well in Huvec media. Twenty-four hours later the indicated concentrations of TNFα, IL10, or all trans retinoic acid (ATRA) were added. Twenty-four hours later in the cast of TNFα or IL10 treatment or 48 hours later in the case of ATRA, cells were trypsonized and stained for the indicated surface markers following the described flow cytometry staining protocol. Cells were then immediately analyzed.
# [3] = test system: human T cells; test: C3d complement deposition on T cells incubated with normal human serum (flow cytometry); format: cell-based; settings: 5% nHS, 100 μM Compstatin
# Protocol: (§1) FIGS. 11A, 11B, and 11C. (A) C3d deposition on patient and control T cells were incubated in the presence or absence of 5% nHS with or without the addition of 100 μM Compstatin to block complement activation. (B) Ratio of C3a to C4a in culture supernatants after 24 hours of incubation with 5% nHS w/wo 100 μM compstatin. (C) Ratio of C5a to C4a in culture supernatants after 24 hours of incubation with 5% nHS or without 100 μM compstatin. ***=p<0.001.
# Complement Deposition. T cells (Patient CD4^+ T cell blasts or Jurkat T cells) were collected and washed 3× in basal RPMI. Cells were then resuspended in basal media and rested for 2-3 hours at 37° C. to allow any deposited complement components to be cleared from the cell surface. Rested cells were then collected and resupended in basal RPMI or basal RPMI that had been adjusted to pH 6.5 (acidified media) to a final concentration of 1×10^6 cells/mL. Non-heat shocked pooled normal human serum was then added to cell suspension for the indicated amount of time. Human serum that had been heat shocked at 56° C. for 30 minutes was used as a negative control for complement activation. […] Cells were washed 3× and resuspended in FACS buffer (PBS, 1% FBS) and analyzed for C3d deposition by flow cytometry. […] Cells were then treated with trypsin/EDTA to release cells into suspension, washed, and then analyzed for C3d deposition as above. […]
# [4] = test system: patient T cells; test: Anaphylatoxin ratios (C3a/C4a, C5a/C4a) in T cell culture supernatants; format: cell-based, human; settings: 24 hours incubation with 5% nHS, 100 μM Compstatin
# Protocol: as §1
# Compstatin Inhibits C3d Deposition on Human Cells. FIG. 11A illustrates that Compstatin inhibits C3d deposition on human T cells. […] In FIG. 11C, the ratio of C5a to C4a in culture supernatants of patient T cells after 24 hours of incubation with 5% nHS and 100 μM Compstatin is decreased, as compared to patient T cells not treated with Compstatin. ***=p<0.001.
# [5] = 48 hour culture with increasing doses of ATRA
molecule,measurement,setting,value
"CC1=C(/C=C/C(C)=C/C=C/C(C)=C/C(=O)O)C(C)(C)CCC1 [ATRA, all trans retinoic acid]",surface expression of C3aR on T cells,[1]; serum free X-vivo15 media,depended on the presence
same,chemokine receptor CCR9 and integrin α4β7 (gut homing) on T cells,[1]; serum free conditions,expressed
same,CD46 expression,[2]; [5],no change
same,CD55 expression,[2]; [5],increase
same,CD59 expression,[2]; [5],no change
same,thrombomodulin expression,[2]; [5],dose-dependent decrease
TNFα,CD46 expression on endothelial cells,[2]; 24 hour culture with TNFα,decreased
same,CD55 expression on endothelial cells,[2]; 24 hour culture with TNFα,modestly increasing
same,CD59 expression on endothelial cells,[2]; 24 hour culture with TNFα,decreased
same,thrombomodulin (TM) and tissue factor (TF) expression on endothelial cells,[2]; 24 hour culture with TNFα,induces procoagulatory
CC[C@H](C)[C@H](N)C(=O)N[C@H]1CSSC[C@@H](C(=O)N[C@H](C(N)=O)[C@@H](C)O)NC(=O)[C@H](CCCN=C(N)N)NC(=O)[C@H](Cc2cnc[nH]2)NC(=O)[C@H](Cc2cnc[nH]2)NC(=O)CNC(=O)[C@H](Cc2c[nH]c3ccccc23)NC(=O)[C@H](CC(=O)O)NC(=O)[C@H](CCC(N)=O)NC(=O)[C@H](C(C)C)NC(=O)[C@H](C(C)C)NC1=O [Compstatin],C3d deposition on patient T cells,[3],substantially inhibited
same,ratio of C3a to C4a in culture supernatants,[4],considerably decreased
same,ratio of C5a to C4a in culture supernatants,[4],decreased
